The subject of one experiment is U-937. Nature of the experiment: Cytotoxicity against human U-937 cells assessed as reduction in cell viability at 3 uM incubated for 24 hrs by MTT assay relative to control. The format is functional. On the technique in general: Tetrazolium dyes change colour on reduction, which living cells bring about.
The next experiment addresses Histone deacetylase 3 (Homo sapiens, UniProt O15379). Nature of the experiment: Inhibition of human recombinant HDAC3 using Boc-Lys(Ac)-AMC fluorogenic substrate measured after 60 mins by fluorescence assay.
Experiment [1] addresses Histone deacetylase 1 (Homo sapiens) (UniProt Q13547). In words: Inhibition of HDAC1 (unknown origin) at 10 uM relative to control.

From ChEMBL document CHEMBL5096163, “Current status in the discovery of dual BET/HDAC inhibitors” (Bioorg Med Chem Lett, 2021) come the findings set out here.

Histone deacetylase 3, sequence (O15379 whole entry): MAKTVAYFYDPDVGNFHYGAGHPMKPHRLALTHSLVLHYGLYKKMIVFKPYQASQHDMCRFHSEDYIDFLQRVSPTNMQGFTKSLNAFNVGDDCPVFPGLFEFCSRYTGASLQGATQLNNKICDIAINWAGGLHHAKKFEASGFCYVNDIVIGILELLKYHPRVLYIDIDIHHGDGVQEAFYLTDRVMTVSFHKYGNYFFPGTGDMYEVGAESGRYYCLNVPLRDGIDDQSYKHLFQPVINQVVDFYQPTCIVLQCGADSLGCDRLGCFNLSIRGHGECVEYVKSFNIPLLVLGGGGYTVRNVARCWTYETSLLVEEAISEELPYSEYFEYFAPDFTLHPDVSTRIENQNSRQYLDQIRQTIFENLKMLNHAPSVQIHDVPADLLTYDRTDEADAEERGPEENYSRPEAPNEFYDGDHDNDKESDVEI
Histone deacetylase 1 (Homo sapiens), sequence (Q13547 whole entry): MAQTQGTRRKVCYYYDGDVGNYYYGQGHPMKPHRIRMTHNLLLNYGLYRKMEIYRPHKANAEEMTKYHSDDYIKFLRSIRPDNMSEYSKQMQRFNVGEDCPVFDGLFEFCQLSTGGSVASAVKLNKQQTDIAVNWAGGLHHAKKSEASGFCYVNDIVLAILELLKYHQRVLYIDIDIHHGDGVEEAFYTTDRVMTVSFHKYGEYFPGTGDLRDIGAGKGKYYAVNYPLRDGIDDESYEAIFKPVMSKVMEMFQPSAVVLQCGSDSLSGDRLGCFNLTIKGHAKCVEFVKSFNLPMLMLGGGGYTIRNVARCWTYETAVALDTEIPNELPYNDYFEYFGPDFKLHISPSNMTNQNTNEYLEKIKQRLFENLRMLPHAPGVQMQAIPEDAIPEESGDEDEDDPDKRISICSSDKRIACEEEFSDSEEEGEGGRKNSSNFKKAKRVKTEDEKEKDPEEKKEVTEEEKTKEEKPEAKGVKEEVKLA

For the molecule `Cc1sc2c(c1C)C(c1ccc(Cl)cc1)=N[C@@H](CC(=O)NCCCC(=O)Nc1ccccc1N)c1nnc(C)n1-2`, in the experiment with U-937, the Activity stood at 16.12%.

As usually defined, the IC50 is the concentration that inhibits the measured activity by half. `COC(c1c(F)cccc1Cl)c1c[nH]c2ncc(-c3c(C)noc3C)cc12` (stereo not given): the 50% inhibitory concentration (IC50) on Histone deacetylase 3 stood at 5 nM.

In the case of `O=C(CCCCCCn1cc(Cc2ccccc2)c2cccnc21)NO`, the IC50 on Histone deacetylase 3 was 60 nM.

In general, inhibition refers to the change of the read-out against control, counted positive when it falls. Take `Cc1noc(C)c1-c1cnc2c(c1)c(Cc1ccc(F)cc1)cn2CCCCCCC(=O)NO`: the IC50 at Histone deacetylase 3 is 5 nM. In addition, the inhibition in experiment [1] came out at 88%.
